Laboratory results as given in article PMC7144554, “2-(Arylamino)-6-(trifluoromethyl)nicotinic Acid Derivatives: New HIV-1 RT Dual Inhibitors Active on Viral Replication” (Molecules, 2020).
Read-outs that look alike come from different tables or passages of the source.

Tests used:
[1] = biological target: T1, HIV-1 RT-associated RNase H activity (wt RT) (Human immunodeficiency virus type 1 group M subtype B, UniProt P04585); experiment: HIV-1 DNA polymerase-independent RNase H activity, wt RT; assay type: biochemical; conditions: RNase H IC50, wt RT
T1 construct: RT is a heterodimeric (p66/p51) multifunctional enzyme; made in house; host or cells: Escherichia coli strain M15
Protocol: p6HRT-prot vector was kindly provided by Dr. Stuart Le Grice Laboratory. Heterodimeric RT was expressed essentially as described. Briefly, Escherichia coli strain M15 containing the p6HRT-prot vector were grown up to an OD600 of 0.7 and induced with isopropyl β-D-1-thiogalactopyranoside (IPTG) 1.7 mM for 4 h. Cell pellets were resuspended in Lysis buffer (50 mM sodium phosphate pH 7.8, 0.5 mg/mL lysozyme), incubated on ice for 20 min, added 0.3 M final NaCl, sonicated and centrifuged at 30,000× g for 1 h. The supernatant was loaded into a Ni^2+-sepharose column pre-equilibrated with loading buffer (50 mM sodium phosphate pH 7.8, 0.3 M NaCl, 10% glycerol, 10 mM imidazole) and washed thoroughly with wash buffer (50 mM sodium phosphate pH 6.0, 0.3 M NaCl, 10% glycerol, 80 mM imidazole). RT was gradient-eluted with elute buffer (wash buffer with 0.5 M imidazole). Fractions were collected, protein purity was checked by SDS-PAGE and found to be higher than 90%. RT containing fractions were pooled and diluted 1:1 with dilute buffer (50 mM sodium phosphate pH 7.0, 10% glycerol) then loaded into a Hi-trap Heparine HP GE (Healthcare Lifescience) pre-equilibrated with 10-column volume of loading buffer 2 (50 mM sodium phosphate pH 7.0, 10% glycerol, 150 mM NaCl). Column was then washed with loading buffer 2 and RT was gradient-eluted with elute buffer 2 (50 mM sodium phosphate pH 7.0, 10% glycerol, 150 mM NaCl). Fractions were collected, protein was dialyzed and stored in buffer containing 50 mM Tris HCl pH 7.0, 25 mM NaCl, 1 mM EDTA, 50% glycerol. Catalytic activities and protein concentration were determined. Enzyme-containing fractions were pooled and aliquots were stored at −80 °C.
The RT-associated RNase H activity of wt and mutated HIV RTs was measured as described, in 100 µL reaction volume containing 50 mM Tris HCl pH 7.8, 6 mM MgCl2, 1 mM dithiothreitol (DTT), 80 mM KCl, hybrid RNA/DNA (5’-[…]-3’-Fluorescein, 5’-[…]-3’-Dabcyl), and different amounts of enzymes according to a linear range of dose-response curve—20 ng of wt RT; 50 ng K103N RT; 100 ng V108A RT; 4 ng Y181C RT; 100 ng Q475A RT; 100 ng A502F RT. The reaction mixture was incubated for 1 h at 37 °C, the reaction was stopped by addition of EDTA and products were measured with a Victor 3 (Perkin) at 490/528 nm.

HIV-1 IIIB strain = experiment: Antiviral assay, HIV-1 replication in TZMbl cells (luciferase); assay type: cell-based; conditions: for EC50: read-out: HIV-1 EC50 TZMbl Cells
Protocol: Drug-mediated inhibition of virus-induced cytotoxicity was assayed in TZM-BL cells. […] Serial dilutions of drugs were added immediately after infection. Luciferase activity was measured as reported [67]. Two days after infection, the culture medium was removed from each well and 100 µl of Bright Glo reagent (Promega, Luis Obispo, CA) was added to the cells for measurement of luminescence using a Victor 2 luminometer (Perkin). […] Cell viability in CEM cells was quantified 5 days after infection with the MTT-dye reduction method.

[2] = Cytotoxicity in TZMbl cells; assay type: cell-based; conditions: human
TZMbl cells = experiment: Cytotoxicity in TZMbl cells; assay type: cell-based; conditions: highest concentration tested
[3] = Cell viability in CEM cells (MTT); assay type: cell-based; conditions: human, MTT, 5 days
Protocol: (§1) Drug-mediated inhibition of virus-induced cytotoxicity was assayed in TZM-BL cells. Triplicate wells of 96-well plates containing 1 × 10^4 TZMbl cells were infected with HIV-1 IIIB strain at a multiplicity of infection of 0.1. Serial dilutions of drugs were added immediately after infection. Luciferase activity was measured as reported. Two days after infection, the culture medium was removed from each well and 100 µl of Bright Glo reagent (Promega, Luis Obispo, CA) was added to the cells for measurement of luminescence using a Victor 2 luminometer (Perkin). The 50% effective concentration (EC50) was defined as the concentration that caused a 50% reduction of luciferase activity (relative light units) compared to virus control wells. Cell viability in CEM cells was quantified 5 days after infection with the MTT-dye reduction method.

CEM cells = experiment: Cell viability in CEM cells (MTT); assay type: cell-based; conditions: highest concentration tested
Protocol: as §1

[4] = Human immunodeficiency virus 1, TZM-bl, TZMbl cells, HIV-1 IIIB

| SMILES | IC50 [1] [µM] | EC50 (HIV-1 IIIB strain; [4]) [µM] | CC50 [2] [µM] | percentage of cells viability in presence of the highest concentration of inhibitor tested, TZMbl (TZMbl cells) [%] | CC50 at 5 days [3] [µM] | percentage of cells viability in presence of the highest concentration of inhibitor tested, CEM cells (CEM cells) [%] | SI (selectivity index) (HIV-1 IIIB strain; TZMbl cells) | melting point [°C] | EC50 (HIV-1 IIIB strain; Human immunodeficiency virus 1, IIIB, TZM-bl) [µM] |
| --- | --- | --- | --- | --- | --- | --- | --- | --- | --- |
| CCOC(=O)c1ccc(C(F)(F)F)nc1Nc1cc(Cl)ccc1C [Compound 9] | 24 ± 1.7 | > 10 | > 50 | 75 | > 50 | 100 | – | – | – |
| Cc1ccc(Cl)cc1Nc1nc(C(F)(F)F)ccc1C(=O)Oc1ccc(Cl)cc1 [Compound 13] | 9.3 ± 2.5 | 10 | 36 ± 1 | – | > 50 | 70 | 3.6 | – | – |
| Cc1ccc(Cl)cc1Nc1nc(C(F)(F)F)ccc1C(=O)Oc1ccccc1O [Compound 16, 2-Hydroxyphenyl 2-((5-chloro-2-methylphenyl)amino)-6-(trifluoromethyl)nicotinate] | 16.2 ± 6.6 | > 10 | 12.2 ± 2.1 | – | > 12.5 | 100 | – | 179 to 180 | – |
| CSc1ccc(OC(=O)c2ccc(C(F)(F)F)nc2Nc2cc(Cl)ccc2C)cc1 [Compound 24, 4-(Methylthio)phenyl 2-((5-chloro-2-methylphenyl)amino)-6-(trifluoromethyl)nicotinate] | 9.6 ± 0.8 | > 10 | 50 | – | > 50 | 100 | – | 125 to 127 | – |
| COc1ccccc1CNC(=O)c1ccc(C(F)(F)F)nc1Nc1cc(Cl)ccc1C [Compound 39, 2-((5-Chloro-2-methylphenyl)amino)-N-(2-methoxybenzyl)-6-(trifluoromethyl)nicotinamide] | 18.7 ± 1.7 | > 10 | 14.8 ± 3.1 | – | > 12.5 | 55 | – | 148 to 150 | – |
| Cc1ccc(Cl)cc1Nc1nc(C(F)(F)F)ccc1C(=O)NCc1ccc(Cl)cc1Cl [Compound 45, 2-((5-Chloro-2-methylphenyl)amino)-N-(2,4-dichlorobenzyl)-6-(trifluoromethyl)nicotinamide] | 19.3 ± 0.6 | > 10 | 5 ± 0.6 | – | 9.15 | – | – | 153 to 155 | – |
| Cc1ccc(Cl)cc1Nc1nc(C(F)(F)F)ccc1C(=O)NCc1ccc(Cl)c(Cl)c1 [Compound 46, 2-((5-Chloro-2-methylphenyl)amino)-N-(3,4-dichlorobenzyl)-6-(trifluoromethyl)nicotinamide] | 25.6 ± 3.4 | > 6.3 | 6.3 ± 1.3 | – | 10.6 | – | – | 179 to 180 | – |
| COc1cc(CNC(=O)c2ccc(C(F)(F)F)nc2Nc2cc(Cl)ccc2C)ccc1O [Compound 47, 2-((5-Chloro-2-methylphenyl)amino)-N-(4-hydroxy-3-methoxybenzyl)-6-(trifluoromethyl)nicotinamide] | 18.2 ± 1.7 | > 10 | 15 ± 3 | – | 17.4 | – | – | 142 to 143 | – |
| Cc1ccc(Cl)cc1Nc1nc(C(F)(F)F)ccc1C(=O)N1CCN(c2ccc(Cl)c(Cl)c2)CC1 [Compound 52, (2-((5-Chloro-2-methylphenyl)amino)-6-(trifluoromethyl)pyridin-3-yl)(4-(3,4-dichlorophenyl)piperazin-1-yl)methanone] | 7.5 ± 2 | 10 ± 1.2 | 15.7 ± 5.1 | – | > 50 | 76 | 1.6 | 165 to 167 | – |
| O=C1Nc2ccc(Cl)cc2[C@@](C#CC2CC2)(C(F)(F)F)O1 [EFV, efavirenz, reference compound] | – | – | > 50 | 100 | > 50 | 100 | – | – | 0.15 ± 0.02 |
